Common to all, as to format: cell-based, Saccharomyces
Test [1] concerns active dry yeast Uvaferm CEG. Briefly: Duration of fermentation of deficient synthetic must MS70-fa with different added nutrients (Example 3). Particulars: average of duplicates, control without addition 290. As to the method: 12 fermentations were carried out in parallel and in duplicate on a synthetic must MS70-fa such as described in example 1, and corresponding to a medium deficient in assimilable nitrogen (100 mg/l) and containing 200 g/l of fermentable sugars. The active dry yeast used is the commercial yeast Uvaferm CEG™ inoculated at a dosage of 20 g/hl. The yeast extract is the commercial extract Bacto-yeast extract ref. 0127-01-7 (DIFCO, USA). The vitamins and mineral salts are the standard products available from suppliers.
F1 and 2: Controls in which no yeast extract is added either into the rehydration medium of the yeast or into the fermentation medium. The control rehydration medium is the base medium: water with glucose added at 50 g/l.
F3: Fermentation carried out with the yeast CEG™ rehydrated in the presence of yeast extract (used at a dosage permitting a concentration of 30 g/hl in the must) in the rehydration medium.
F4: Fermentation carried out with the yeast CEG™ rehydrated in a control rehydration medium. The same yeast extract as for F3 is added at the start of alcoholic fermentation directly into the synthetic must MS70-fa in a dosage of 30 g/hl.
F6: Fermentation carried out with the yeast CEG™ rehydrated in a control rehydration medium. […]

The test system of test [2] is active dry yeast Uvaferm PM. Nature of the test: Industrial fermentation of Airen white wine must in 100 hectolitre vats (Example 7). As to the method: (§1) The medium M2 containing the composition C2 has been used to rehydrate the ADYs and culture a fermentation must of a white wine in industrial conditions in a cellar in the region of la Mancha in Spain.
(§2) Assimilable Nitrogen in the must: 225 mg/l (non-Deficient must)
(§3) Fermentations have been carried out in 100 hectolitre vats according to different forms, in order to determine the most favourable conditions. Two types of ADY have been used, on their own or in the presence of other substances jointly added to the musts to encourage fermentation. In particular the influence of diammonium phosphate and a fermentation activator, added to the fermentation medium, has been studied.
(§4) The active dry yeasts Uvaferm™ CEG (Lallemand, Canada) and Uvaferm™ PM (Lallemand, Canada) have been rehydrated with the aid of the medium M2 described in example 6. For each of the two yeasts, 4 tests have been carried out, by adding:
(§5) The fermentation activator used is the activator Fermaid™ (Lallemand, Canada).
(§6) The kinetic profile of these eight fermentations was followed by measuring the density of the must and at the level of the production of a secondary component of fermentation, i.e. acetate. Indeed, acetate is responsible for the volatile acidity of wines which should be minimised in order to obtain good gustative qualities.
(§7) The values presented in table 2 correspond to fermentation times in days for each form.
(§8) The values presented in table 3 correspond to the volatile acidity measured at the end of fermentation by the Duclaux-Gayon method, known to the person skilled in the art.

Test [3] deals with active dry yeast Uvaferm CEG. The test is described as above. The procedure: as §1, §2, §3, §4, §5, §6, §7, §8
Setting [4] is: Airen must, 225 mg/l assimilable nitrogen.
[5] abbreviates: at end of fermentation, Duclaux-Gayon method.

For `N.N.O=P(O)(O)O` [Di-ammonia phosphate], the “fermentation time, in rehydration medium” value in test [1] (product added in rehydration medium) was 280 h. For the same compound, the “fermentation time, at start of fermentation” value in test [1] (product added to must at start of fermentation) came out at 285 h.
For `N.N.O=P(O)(O)O` [Test no. 1], the figures for the fermentation time in test [2] (setting [4]) and in test [3] (setting [4]) were 8 days and 10 days, respectively. Besides, the figures for the Volatile acidity in test [2] (setting [5]) and in test [3] (setting [5]) were 0.33 g/L and 0.48 g/L, respectively.

(Values after patent US20040213889A1, “Method for active dry yeast rehydration and rehydration medium” (priority 2001, published 2004).)
